Where two headings read alike, the source gives them in different places.
Key:
[1] = biological target: T1, Human PARP6 (Homo sapiens, UniProt Q2NL67); experiment: PARP6 inhibition assay (400 nM PARP6, 500 nM NAD+, 18 h); assay type: biochemical; conditions: ≫ no inhibition at the concentration; > less than 50% inhibition
T1 construct: Human PARP6 (Uniprot #Q2NL67-1) was cloned into a modified pFASTBac1 vector; 6× His-MBP with TEV protease site (N, cleaved yes); made in house; host or cells: Sf21 insect cells (baculovirus)
Method: (§1) Inhibition experiments were performed using a homogenous assay measuring NAD+ consumption.[80]−[82] Reactions were carried out in quadruplicate, and IC50 curves were fitted using sigmoidal dose response curve (four variables) in GraphPad Prism version 8.02. […] Assay conditions for PARP2, TNKS2, PARP10, and PARP15 (Tables 1–3) were recently reported.[44] The conditions for the proximity-enhanced mono-ART assays (Table 4) were also reported recently.[47] PARP6 (400 nM) inhibition was measured using the standard buffer (50 mM sodium phosphate pH 7.0) for the enhanced activity assay using 500 nM NAD^+ and 18 h incubation in r.t..

[2] = biological target: T2, PARP16 (Homo sapiens, UniProt Q8N5Y8); experiment: Proximity-enhanced mono-ART activity assay, PARP16; assay type: biochemical; conditions: > less than 50% inhibition
T2 construct: dockerin domain of Hungateiclostridium thermocellum Cel48s (C); made in house; host or cells: Escherichia coli
T2 sequence (Q8N5Y8 1-322): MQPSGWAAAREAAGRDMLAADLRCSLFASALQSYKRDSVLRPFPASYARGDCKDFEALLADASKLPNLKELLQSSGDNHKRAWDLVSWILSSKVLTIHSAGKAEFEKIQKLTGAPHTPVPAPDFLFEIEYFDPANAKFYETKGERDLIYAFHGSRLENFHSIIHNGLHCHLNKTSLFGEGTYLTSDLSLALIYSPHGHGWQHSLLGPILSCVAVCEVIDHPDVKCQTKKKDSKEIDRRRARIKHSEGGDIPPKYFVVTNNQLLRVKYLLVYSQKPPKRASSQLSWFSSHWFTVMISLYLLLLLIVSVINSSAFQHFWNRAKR
Method: We therefore had to improve the assay method and developed a homogeneous proximity enhanced assay for mono-ARTs.[47]
The proteins used in Tables 1–3 were produced as described earlier. Dockerin constructs to allow enhanced activity assays for mono-ARTs (Table 4) were produced in Escherichia coli with an N-terminal maltose binding protein (MBP) and a C-terminal dockerin domain from Hungateiclostridium thermocellum Cel48s as described recently.[47]
as §1

[3] = Thermodynamic water solubility; assay type: physicochemical; conditions: distilled water, r.t.
Method: Each solid compound (1 mg) was added to 1 mL of distilled water. Each sample was mixed at r.t. in a shaker water bath 24 h. The resulting suspension was filtered through a 0.45 μm nylon filter (Acrodisc), and the solubilized compound was quantified in triplicate using UV/LC–MS method reported above by comparison with the appropriate calibration curve that was obtained from samples of the compound dissolved in methanol at different concentrations.[94]

[4] = PAMPA, gastrointestinal tract (GI) permeability; assay type: in vitro ADME; conditions: phosphatidylcholine; for Papp at 5 h, 500 μM: pH 7.4, 5 h
Method: (§2) Each “donor solution” was prepared from a solution of the appropriate compound (DMSO, 1 mM) diluted with phosphate buffer (pH 7.4, 0.025 M) up to a final concentration of 500 μM. […] Donor solution (150 μL) was added to each well of the filter plate and to each well of the acceptor plate was added 300 μL of solution (50% DMSO in phosphate buffer). The sandwich plate was assembled and incubated for 5 h at r.t. After the incubation time, the plates were separated, and the samples were taken from both the donor and acceptor wells, and the amount of compound was measured by UV/LC–MS. All compounds were tested in three independent experiments. […] Drug concentration is estimated by using the peak area integration. Membrane retentions (%) were calculated according to the following equation [drawing 2] where r is the ratio between drug concentration in the acceptor and equilibrium concentration and D, A, and Eq represent drug concentration in the donor, acceptor, and equilibrium solution, respectively.

[5] = PAMPA, blood brain barrier (BBB) permeability; assay type: in vitro ADME; conditions: brain polar lipid; for Papp at 5 h, 500 μM: pH 7.4, 5 h
Method: as §2

[6] = Stability in PBS pH 7.4; assay type: physicochemical; conditions: 500 μM
Method: For the stability measurements in polar solvents, each compound was dissolved at room temperature in MeOH or PBS (0.025 M, pH 7.4) up to a final concentration of 500 μM.

[7] = read-out: water solubility (log s) (converted)

T1 sequence (Q2NL67 whole entry): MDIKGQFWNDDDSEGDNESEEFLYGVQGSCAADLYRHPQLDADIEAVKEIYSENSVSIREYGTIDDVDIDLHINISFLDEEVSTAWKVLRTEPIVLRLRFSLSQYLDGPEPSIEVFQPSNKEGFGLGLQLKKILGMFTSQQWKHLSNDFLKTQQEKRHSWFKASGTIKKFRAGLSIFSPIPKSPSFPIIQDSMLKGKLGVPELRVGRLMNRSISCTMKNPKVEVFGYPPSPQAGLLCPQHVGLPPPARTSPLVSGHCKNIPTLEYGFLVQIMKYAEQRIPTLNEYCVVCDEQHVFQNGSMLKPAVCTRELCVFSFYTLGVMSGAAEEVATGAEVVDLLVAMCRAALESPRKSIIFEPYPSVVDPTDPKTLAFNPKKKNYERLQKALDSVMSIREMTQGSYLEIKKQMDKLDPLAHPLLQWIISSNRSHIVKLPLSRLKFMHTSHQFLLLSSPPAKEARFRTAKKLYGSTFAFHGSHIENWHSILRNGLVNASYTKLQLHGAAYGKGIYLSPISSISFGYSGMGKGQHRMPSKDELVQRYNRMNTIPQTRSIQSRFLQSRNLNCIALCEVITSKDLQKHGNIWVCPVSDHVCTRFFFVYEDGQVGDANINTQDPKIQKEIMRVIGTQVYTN

| Structure (SMILES) | IC50 [1] | IC50 [2] | solubility at 24 h ([3]; read-out: water solubility) | solubility at 24 h [3, 7] | GI RM % (retention membrane percentage) [4] | Papp at 5 h, 500 μM [4] | BBB RM % (retention membrane percentage) [5] | Papp at 5 h, 500 μM [5] | stab in PBS pH 7.4 [6] |
| --- | --- | --- | --- | --- | --- | --- | --- | --- | --- |
| COc1ccc(OC)c2c1sc1nnc(N)n12 [Compound 27, 5,8-Dimethoxy[1,2,4]triazolo[3,4-b][1,3]benzothiazol-3-amine] | 7.7 µM | 3.4 µM | 12.6 µg/mL | 50.4 µM | 1.3% | 0.144 ×10⁻⁶ cm/s | 3.4% | 0.143 ×10⁻⁶ cm/s | >24 h |
| Cc1ccc2c(c1)sc1nnc(N)n12 [Compound 21, 7-Methyl[1,2,4]triazolo[3,4-b][1,3]benzothiazol-3-amine] | > 10 µM | 5.2 µM | 37.6 µg/mL | 184 µM | 1.8% | 0.281 ×10⁻⁶ cm/s | 5.3% | 0.475 ×10⁻⁶ cm/s | >24 h |
